Calls of active or inactive are those of the source.
How the values were obtained:
[1] = biological target: T1, Disintegrin and metalloproteinase domain-containing protein 17 (Homo sapiens, UniProt P78536); test: ADAM17 protease inhibitors, dose response, counter-screen for ADAM10 exosite inhibitor project, biochemical, quenched FRET substrate (AID 743253)
[2] = ADAM10 inhibitors, peptide cleavage, dose response, biochemical, QFRET (AID 743254);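 note: ADAM10 enzyme with the DM2 quenched FRET peptide as substrate; EDANS fluorescence gain as the protease cuts the substrate; inhibitor potency against ADAM10 proteolytic activity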
[3] = biological target: T2, Heat shock factor protein 1 (Mus musculus, UniProt P38532); test: HSF1 potentiators in luciferase reporter cells, confirmation, cell-based, NIH3T3, luminescence, dose retest (AID 435004); format: functional;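 note: stress induced by proteasome inhibitor MG132 added 30 min after compound; luciferase reporter driven by HSF1 response element in NIH3T3 cells; actives raise luminescence as potentiators of the MG132 stress response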
T2 sequence (P38532 whole entry): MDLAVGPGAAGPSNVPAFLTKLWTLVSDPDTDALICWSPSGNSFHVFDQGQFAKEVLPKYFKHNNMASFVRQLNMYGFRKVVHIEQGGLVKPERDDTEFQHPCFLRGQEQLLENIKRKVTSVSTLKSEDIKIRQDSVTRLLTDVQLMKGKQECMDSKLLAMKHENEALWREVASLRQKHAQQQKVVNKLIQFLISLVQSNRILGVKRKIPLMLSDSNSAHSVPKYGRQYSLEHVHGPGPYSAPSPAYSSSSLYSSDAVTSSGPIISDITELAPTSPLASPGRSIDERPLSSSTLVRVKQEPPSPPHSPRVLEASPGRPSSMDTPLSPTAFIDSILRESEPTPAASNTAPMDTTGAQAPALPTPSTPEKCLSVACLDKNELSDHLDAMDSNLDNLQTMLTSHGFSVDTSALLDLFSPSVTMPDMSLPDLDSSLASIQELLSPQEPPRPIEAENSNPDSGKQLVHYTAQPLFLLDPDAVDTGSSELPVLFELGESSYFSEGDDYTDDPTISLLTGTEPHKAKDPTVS

HT-1080 = test: cytotoxicity in HT1080 fibrosarcoma cells, cell-based, fluorescence readout (AID 620); format: functional; details: Homo sapiens
[4] = biological target: Fructose-bisphosphate aldolase (Mycobacterium tuberculosis, UniProt P9WQA3); test: Fluorescence-based biochemical high throughput dose response assay for inhibitors of the fructose-bisphosphate aldolase (FBA) of M. tuberculosis.; format: functional
[5] = biological target: Luciferin 4-monooxygenase (Photinus pyralis, UniProt P08659); test: Counter Screen for Luciferase-based Assay Positives. [Related pubchem assays: 620, 618, 411 ]
[6] = Late stage assay provider results from the probe development effort to identify inhibitors of the Plasmodium falciparum M18 Aspartyl Aminopeptidase (M18AAP): radiolabel-based cell-based dose response assay to identify compounds that inhibit P. falciparum growth in RBCs, Set 2..; format: functional
[7] = biological target: SWI/SNF-related matrix-associated actin-dependent regulator of chromatin subfamily A member 2 (Homo sapiens, UniProt P51531); test: Luminescence-based cell-based high throughput dose response assay to identify activators of the function of SWI/SNF related, matrix associated, actin dependent regulator of chromatin, subfamily a, member 2 (SMARCA2, BRM).; format: functional
[8] = Counterscreen for activators of the function of SWI/SNF related, matrix associated, actin dependent regulator of chromatin, subfamily a, member 2 (SMARCA2, BRM): Luminescence-based cell-based high throughput dose response assay to identify non-selective compounds using the VP16 reporter assay.; format: functional
[9] = LGR2 antagonists, dose response, cell-based, HEK293, CRE-luciferase reporter, cherry pick (AID 743342); format: functional
[10] = miR-122 activators in hepatoma reporter cells, dose response, cell-based, Huh7 psiCHECK-miR122, Renilla luciferase, cherry-picked (AID 651956); format: functional;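 note: huh7 hepatoma cells stably carrying a psiCHECK-2 miR-122 sensor plasmid; renilla luciferase signal reporting endogenous miR-122 activity after 48 h compound exposure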
[11] = HEK293T cytotoxicity, dose response, cytotoxicity control for miR-122 modulator project, cell-based, inhibitor set, cherry-pick, set 2 (AID 720697); format: functional
[12] = HEK293T cytotoxicity, dose response, cytotoxicity control for miR-122 modulator project, cell-based, activator set, cherry-pick (AID 720690); format: functional;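 note: HEK293T human cells scored for general mammalian cytotoxicity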
[13] = cytotoxicity toward NIH3T3 fibroblasts, dose response, counter-screen, cell-based, ATP luminescence, mouse fibroblasts (AID 2010); format: functional;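 note: cells exposed to compound for about 90 hours before reading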
[14] = inhibitors of intracellular T. cruzi replication, confirmation, NIH3T3 host cells, beta-gal luminescence (AID 2044); format: functional, cell-based;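 note: intracellular parasites grown in NIH/3T3 mouse fibroblasts as host cells; luminescent beta-galactosidase reporter signal from transgenic T. cruzi replicating inside host cells; inhibitors lower the luminescence signal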
[15] = biological target: Voltage-dependent T-type calcium channel subunit alpha-1H (Homo sapiens, UniProt O95180); format: functional;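 note: channel activity triggered by adding a high calcium stimulation buffer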
[16] = HEp-2 cell cytotoxicity, dose response, cytotoxicity control for RSV inhibitor project, HTS (AID 2410); format: functional; details: human respiratory syncytial virus
[17] = biological target: Tyrosyl-DNA phosphodiesterase 2 (Homo sapiens, UniProt O95551); test: human TDP2 enzyme inhibitors, dose response, biochemical, epi absorbance, IC50 (AID 743297)
[18] = A549 cell cytotoxicity, dose response, cytotoxicity control, plate reader, cherry-pick, antagonist series (AID 743412); format: functional, cell-based
[19] = HEK293 cell cytotoxicity, dose response, cytotoxicity control, plate reader, cherry-picked samples (AID 743446); format: functional, cell-based
Beta-lactamase [20] = biological target: T3, Beta-lactamase (Pseudomonas aeruginosa, UniProt Q79MP6); test: […] counterscreen for selective VIM-2 inhibitors: dose response biochemical high throughput screening assay to identify inhibitors of IMP-1 metallo-beta-lactamase.
Beta-lactamase [21] = biological target: T3, Beta-lactamase; test: IMP-1 metallo-beta-lactamase inhibitors, dose response, selectivity assay for VIM-2 inhibitor project, biochemical, epi-absorbance (AID 1920)
Beta-lactamase [22] = biological target: Beta-lactamase (Salmonella choleraesuis (strain SC-B67), UniProt Q5J463); test: Epi-absorbance-based counterscreen for selective VIM-2 inhibitors: dose response biochemical high throughput screening assay to identify inhibitors of TEM-1 serine-beta-lactamase.
Caspase-6 = Caspase-6 (Homo sapiens, UniProt P55212); test: human caspase-6 inhibitors, dose response, biochemical, VEID-R110 fluorescence, cherry-pick (AID 720632)
[23] = biological target: COUP transcription factor 2 (Homo sapiens, UniProt P24468); test: Luminescence-based cell-based high throughput dose response assay to identify inhibitors of COUP-TFII (NR2F2).; format: functional;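 note: HEK293 cells transiently cotransfected with COUP-TFII expression vector and reporter; luciferase reporter luminescence driven by COUP-TFII from the pX2-168 reporter plasmid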
INS1 = test: beta cell apoptosis inhibitors, cytokine rescue, dose response, luminescence, retest (AID 449756); format: functional, cell-based; details: Rattus norvegicus;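 note: cell death triggered by IL-1 beta plus TNF-alpha plus IFN-gamma mixture; protective hits raise ATP signal compared with cytokine alone wells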
[24] = T. cruzi growth inhibition in host cells, dose response, cell-based, plate reader, dry powder, set 2 (AID 652275); format: functional
[25] = A2780 ovarian cancer cell cytotoxicity, dose response, cytotoxicity control, plate reader, dry powder samples (AID 743046); format: functional, cell-based
[26] = NIH:OVCAR-3 ovarian cancer cell cytotoxicity, dose response, PAX8 inhibitor project, plate reader, dry powder samples (AID 743044); format: functional, cell-based
Paired box protein Pax-8 = Paired box protein Pax-8 (Homo sapiens, UniProt Q06710); test: inhibitors of PAX8-driven TPO luciferase reporter, dose response, RMG-I cells, cherry-pick (AID 687027); format: functional, cell-based;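 note: luciferase reporter driven by Pax8 target thyroperoxidase promoter measured by SteadyGlo luminescence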
[27] = ADAM10 protease inhibitors, dose response, selectivity assay for ADAM17 exosite inhibitor project, biochemical, FRET peptide substrate, recombinant human ADAM10 (AID 743259);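 note: ADAM10 enzyme cleaving a FRET peptide substrate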
[28] = biological target: T1, Disintegrin and metalloproteinase domain-containing protein 17; test: exosite inhibitors of ADAM17, dose response, biochemical (AID 743260)
[29] = cytotoxicity in OVCAR8 ovarian cancer cells, dose response, PAX8 project, cell-based, plate reader, dry powder samples (AID 743197); format: functional; details: OVCAR-8
[30] = P. falciparum Dd2 growth inhibitors, dose response, SYBR Green, cherry-picked samples (AID 1159567); format: functional, cell-based

T1 sequence (P78536 whole entry, the tested form may be a part): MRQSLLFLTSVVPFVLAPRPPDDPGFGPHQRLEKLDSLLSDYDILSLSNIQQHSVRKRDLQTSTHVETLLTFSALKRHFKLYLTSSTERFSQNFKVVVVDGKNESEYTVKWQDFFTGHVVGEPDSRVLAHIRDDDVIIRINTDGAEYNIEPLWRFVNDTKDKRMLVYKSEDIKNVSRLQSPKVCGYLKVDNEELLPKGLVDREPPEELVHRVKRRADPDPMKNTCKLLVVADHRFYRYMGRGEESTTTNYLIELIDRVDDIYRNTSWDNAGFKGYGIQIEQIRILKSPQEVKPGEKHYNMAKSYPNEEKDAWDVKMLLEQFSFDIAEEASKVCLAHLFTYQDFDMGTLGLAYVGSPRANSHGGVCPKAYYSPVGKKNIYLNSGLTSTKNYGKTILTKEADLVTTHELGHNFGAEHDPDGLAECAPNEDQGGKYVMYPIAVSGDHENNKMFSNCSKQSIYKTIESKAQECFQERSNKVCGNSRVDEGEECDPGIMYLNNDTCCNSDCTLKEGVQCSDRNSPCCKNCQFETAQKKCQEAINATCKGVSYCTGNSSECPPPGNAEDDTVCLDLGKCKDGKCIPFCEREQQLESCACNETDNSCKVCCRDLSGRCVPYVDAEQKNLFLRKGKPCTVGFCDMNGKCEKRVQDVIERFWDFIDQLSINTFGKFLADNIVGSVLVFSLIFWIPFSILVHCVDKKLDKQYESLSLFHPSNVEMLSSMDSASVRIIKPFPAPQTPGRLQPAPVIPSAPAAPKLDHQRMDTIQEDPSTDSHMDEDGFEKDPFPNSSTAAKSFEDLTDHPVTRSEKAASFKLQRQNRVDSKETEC
T3 sequence (Q79MP6 whole entry): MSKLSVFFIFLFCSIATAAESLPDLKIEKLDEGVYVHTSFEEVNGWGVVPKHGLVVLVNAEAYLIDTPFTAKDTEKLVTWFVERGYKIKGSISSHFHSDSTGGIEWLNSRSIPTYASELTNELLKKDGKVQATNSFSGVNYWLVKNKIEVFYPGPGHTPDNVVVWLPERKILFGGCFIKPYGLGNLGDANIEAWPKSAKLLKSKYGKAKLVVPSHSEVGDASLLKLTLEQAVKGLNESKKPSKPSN
Beta-lactamase (Salmonella choleraesuis (strain SC-B67), UniProt Q5J463), sequence (Q5J463 whole entry): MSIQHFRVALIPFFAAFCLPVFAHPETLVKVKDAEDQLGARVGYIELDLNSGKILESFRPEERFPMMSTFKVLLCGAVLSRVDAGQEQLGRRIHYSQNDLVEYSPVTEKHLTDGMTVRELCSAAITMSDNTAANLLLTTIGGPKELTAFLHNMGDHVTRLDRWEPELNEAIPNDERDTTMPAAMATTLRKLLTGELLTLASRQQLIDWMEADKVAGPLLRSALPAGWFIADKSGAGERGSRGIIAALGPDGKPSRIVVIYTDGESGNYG
Paired box protein Pax-8, sequence (Q06710 whole entry): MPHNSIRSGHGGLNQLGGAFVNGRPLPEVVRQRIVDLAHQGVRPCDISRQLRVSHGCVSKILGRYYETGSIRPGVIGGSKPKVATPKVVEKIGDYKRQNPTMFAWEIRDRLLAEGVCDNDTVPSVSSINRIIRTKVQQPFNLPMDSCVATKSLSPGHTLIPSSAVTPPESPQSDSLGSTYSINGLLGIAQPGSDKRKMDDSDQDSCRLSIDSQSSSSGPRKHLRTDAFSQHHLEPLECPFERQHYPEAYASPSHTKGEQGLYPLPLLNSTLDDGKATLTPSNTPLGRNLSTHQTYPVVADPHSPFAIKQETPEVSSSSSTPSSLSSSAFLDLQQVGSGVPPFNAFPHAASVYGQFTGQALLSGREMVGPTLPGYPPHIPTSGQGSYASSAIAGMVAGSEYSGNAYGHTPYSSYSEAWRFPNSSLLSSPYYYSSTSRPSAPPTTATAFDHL
SWI/SNF-related matrix-associated actin-dependent regulator of chromatin subfamily A member 2, sequence (P51531 whole entry): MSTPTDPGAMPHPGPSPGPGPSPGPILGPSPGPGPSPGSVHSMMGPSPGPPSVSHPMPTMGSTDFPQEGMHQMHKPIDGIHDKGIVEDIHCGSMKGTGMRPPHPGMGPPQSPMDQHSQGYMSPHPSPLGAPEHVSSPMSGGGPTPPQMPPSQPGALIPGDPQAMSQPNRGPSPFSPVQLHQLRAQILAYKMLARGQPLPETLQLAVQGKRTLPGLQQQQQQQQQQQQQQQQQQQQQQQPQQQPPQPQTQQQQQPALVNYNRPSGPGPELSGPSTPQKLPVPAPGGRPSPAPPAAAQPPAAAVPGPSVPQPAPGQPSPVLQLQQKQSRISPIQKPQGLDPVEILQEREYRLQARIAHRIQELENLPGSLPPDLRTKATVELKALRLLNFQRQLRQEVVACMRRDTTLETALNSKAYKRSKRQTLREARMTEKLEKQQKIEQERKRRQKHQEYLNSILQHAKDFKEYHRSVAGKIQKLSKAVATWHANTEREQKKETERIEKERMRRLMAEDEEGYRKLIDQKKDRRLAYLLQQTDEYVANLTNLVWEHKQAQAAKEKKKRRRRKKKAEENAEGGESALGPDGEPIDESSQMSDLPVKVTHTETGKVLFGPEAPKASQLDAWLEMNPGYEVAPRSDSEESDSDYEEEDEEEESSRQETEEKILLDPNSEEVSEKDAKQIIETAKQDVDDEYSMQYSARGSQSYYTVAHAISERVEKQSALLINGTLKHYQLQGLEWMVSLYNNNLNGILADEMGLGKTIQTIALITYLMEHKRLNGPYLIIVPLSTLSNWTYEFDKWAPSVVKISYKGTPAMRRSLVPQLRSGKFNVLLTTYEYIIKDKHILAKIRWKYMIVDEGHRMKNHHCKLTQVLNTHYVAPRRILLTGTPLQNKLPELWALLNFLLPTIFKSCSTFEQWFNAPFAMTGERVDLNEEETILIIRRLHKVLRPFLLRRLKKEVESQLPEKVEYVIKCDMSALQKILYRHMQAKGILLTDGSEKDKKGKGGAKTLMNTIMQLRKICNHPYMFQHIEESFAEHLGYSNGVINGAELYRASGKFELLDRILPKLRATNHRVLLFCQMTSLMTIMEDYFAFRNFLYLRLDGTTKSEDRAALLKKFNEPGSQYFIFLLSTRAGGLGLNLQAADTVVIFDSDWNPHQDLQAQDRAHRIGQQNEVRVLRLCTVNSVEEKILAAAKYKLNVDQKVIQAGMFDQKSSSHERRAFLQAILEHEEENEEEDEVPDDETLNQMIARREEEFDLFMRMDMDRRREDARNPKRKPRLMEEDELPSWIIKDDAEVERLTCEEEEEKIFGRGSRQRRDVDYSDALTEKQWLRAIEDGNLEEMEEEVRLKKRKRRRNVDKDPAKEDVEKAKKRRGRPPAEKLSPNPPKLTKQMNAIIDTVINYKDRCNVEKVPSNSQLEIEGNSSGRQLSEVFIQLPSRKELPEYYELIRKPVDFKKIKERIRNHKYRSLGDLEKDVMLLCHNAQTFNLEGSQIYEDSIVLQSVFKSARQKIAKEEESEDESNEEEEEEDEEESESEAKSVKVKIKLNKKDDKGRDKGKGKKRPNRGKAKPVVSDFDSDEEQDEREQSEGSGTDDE
Fructose-bisphosphate aldolase, sequence (P9WQA3 whole entry): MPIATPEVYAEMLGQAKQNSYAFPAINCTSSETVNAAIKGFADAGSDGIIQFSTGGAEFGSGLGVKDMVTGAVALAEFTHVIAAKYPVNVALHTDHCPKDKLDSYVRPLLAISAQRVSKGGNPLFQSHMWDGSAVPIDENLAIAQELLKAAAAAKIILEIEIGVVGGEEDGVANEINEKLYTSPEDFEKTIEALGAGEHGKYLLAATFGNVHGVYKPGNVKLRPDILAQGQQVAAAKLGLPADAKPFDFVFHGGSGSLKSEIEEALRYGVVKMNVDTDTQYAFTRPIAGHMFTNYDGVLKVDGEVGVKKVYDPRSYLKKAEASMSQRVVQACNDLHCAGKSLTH
Luciferin 4-monooxygenase, sequence (P08659 whole entry): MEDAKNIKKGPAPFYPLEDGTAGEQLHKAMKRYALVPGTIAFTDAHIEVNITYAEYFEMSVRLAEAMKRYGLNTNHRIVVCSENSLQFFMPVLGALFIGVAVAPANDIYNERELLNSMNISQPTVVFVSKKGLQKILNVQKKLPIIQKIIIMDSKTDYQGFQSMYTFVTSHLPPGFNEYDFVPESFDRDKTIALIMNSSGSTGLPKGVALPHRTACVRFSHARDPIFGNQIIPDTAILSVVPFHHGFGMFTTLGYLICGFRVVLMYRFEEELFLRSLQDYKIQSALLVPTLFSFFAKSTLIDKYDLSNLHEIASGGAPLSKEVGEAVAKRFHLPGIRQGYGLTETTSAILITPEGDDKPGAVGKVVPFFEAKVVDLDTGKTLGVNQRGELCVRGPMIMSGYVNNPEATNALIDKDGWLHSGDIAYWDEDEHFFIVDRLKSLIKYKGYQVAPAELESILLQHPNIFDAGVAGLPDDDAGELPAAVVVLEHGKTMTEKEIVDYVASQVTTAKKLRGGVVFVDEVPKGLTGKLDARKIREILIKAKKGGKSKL
Caspase-6, sequence (P55212 24-179 limits assumed): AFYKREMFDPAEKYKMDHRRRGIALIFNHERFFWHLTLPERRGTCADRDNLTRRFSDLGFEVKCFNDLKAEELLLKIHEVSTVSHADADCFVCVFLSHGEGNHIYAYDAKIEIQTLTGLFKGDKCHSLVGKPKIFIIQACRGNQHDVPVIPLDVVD
Caspase-6, sequence (P55212 194-293 limits assumed): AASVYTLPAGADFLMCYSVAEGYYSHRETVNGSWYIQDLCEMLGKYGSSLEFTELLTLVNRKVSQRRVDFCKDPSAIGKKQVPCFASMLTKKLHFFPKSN
COUP transcription factor 2, sequence (P24468 whole entry): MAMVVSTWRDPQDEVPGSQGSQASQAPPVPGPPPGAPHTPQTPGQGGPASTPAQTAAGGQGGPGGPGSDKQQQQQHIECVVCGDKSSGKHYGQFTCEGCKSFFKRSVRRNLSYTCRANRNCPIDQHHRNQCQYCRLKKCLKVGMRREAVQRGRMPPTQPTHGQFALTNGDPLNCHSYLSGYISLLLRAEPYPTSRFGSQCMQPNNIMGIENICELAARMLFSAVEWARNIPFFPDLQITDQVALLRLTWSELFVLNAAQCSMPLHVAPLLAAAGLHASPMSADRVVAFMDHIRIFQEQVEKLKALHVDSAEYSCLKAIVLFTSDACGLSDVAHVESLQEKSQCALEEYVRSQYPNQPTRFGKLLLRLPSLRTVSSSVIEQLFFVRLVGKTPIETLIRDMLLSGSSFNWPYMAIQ

SMILES: N#Cc1c(-c2ccccc2)c(-c2ccccc2)n(Cc2ccco2)c1NC(=O)c1cccs1
- IC50 [1]: > 69.5 µM (inactive)
- IC50 [2]: > 69.5 µM (inactive)
- EC50 [3]: > 260 µM (inactive)

SMILES: Cc1ccc2nc(-c3cccc(N)c3)oc2c1
- EC50 (HT-1080): > 50 µM (not active)
- IC50 [4]: 0.588 µM (active)
- EC50 [5]: 9.87 µM (active)

SMILES: COc1cccc(CCNc2c3ccccc3nc3ccccc23)c1
- IC50 [6]: 0.6 µM (active)

SMILES: CC(=O)Nc1cc(-c2ccc(N3CCN(C)CC3)cc2)cn2c(-c3ccc(F)cc3)cnc12
- EC50 [7]: > 91.2 µM (inactive)
- EC50 [8]: > 91.2 µM (inactive)

SMILES: COc1ccc(NC(=O)N(C)C[C@@H]2OCCCC[C@H](C)Oc3ccc(NC(=O)NC4CCCCC4)cc3C(=O)N([C@H](C)CO)C[C@@H]2C)cc1
- AC50 [9]: 18.2 µM (active)

SMILES: C[C@@H]1CCCCO[C@@H](CN(C)CC2CCCCC2)[C@H](C)CN([C@H](C)CO)C(=O)c2cc(NC(=O)Nc3cccc4ccccc34)ccc2O1
- AC50 [10]: 7.47 µM (active)
- AC50 [11]: 13.8 µM (active)
- AC50 [12]: 14.8 µM (active)

SMILES: CC(C)(C)NC(=O)C(CCc1ccccc1)n1c(=O)c(-c2ccccc2)nc2ccccc21 (centres undefined)
- EC50 [7]: > 91.1 µM (inactive)
- EC50 [8]: > 91.1 µM (inactive)

SMILES: Cc1cccc2cc(CN(Cc3ccco3)C(=O)Nc3cccc(C#N)c3)c(Cl)nc12
- IC50 [1]: > 69.5 µM (inactive)
- EC50 [13]: 26.5 µM (active)
- IC50 [2]: > 69.5 µM (inactive)
- EC50 [14]: 1.94 µM (active)
- EC50 [15]: 6.15 µM (active)

SMILES: COc1ccc(Cn2nnnc2C(CC(C)C)N2CCN(c3ccccc3)CC2)cc1 (centres undefined)
- IC50 [4]: > 9.99 µM (inactive)
- CC50 [16]: > 50 µM (active)

SMILES: COc1ccc(-c2[nH]nc(O)c2NC(=O)c2ccc(C)cc2)cc1
- IC50 [17]: > 128 µM (inactive)

SMILES: C[C@H](CO)N1C[C@H](C)[C@H](CN(C)C(=O)Nc2ccc(C(F)(F)F)cc2)OCCCC[C@H](C)Oc2ccc(NC(=O)CCC(F)(F)F)cc2C1=O
- AC50 [9]: 1.29 µM (active)
- AC50 [18]: 35.6 µM (active)
- AC50 [19]: 32.9 µM (active)

SMILES: Cc1cc(=O)oc2c3c(cc(OCC(=O)N4CCC[C@H]4C(=O)O)c12)OC(C)(C)CC3
- IC50 (Beta-lactamase [20]): > 59.6 µM (inactive)
- IC50 (Beta-lactamase [21]): > 59.6 µM (inactive)
- IC50 (Beta-lactamase [22]): > 59.6 µM (inactive)

SMILES: Cc1ccc(Sc2ccc(S(=O)(=O)Nc3ccc(CC(=O)O)cc3)cc2)cc1C
- AC50 (Caspase-6): 49.3 µM (active)

SMILES: CC1CCCCC1n1c(S)nnc1-c1cccnc1 (centres undefined)
- IC50 (Beta-lactamase [20]): > 59.6 µM (inactive)
- IC50 (Beta-lactamase [21]): > 59.6 µM (inactive)
- IC50 (Beta-lactamase [22]): > 59.6 µM (inactive)

SMILES: O=C(NCC(c1ccco1)N1CCCC1)c1ccc(Cl)c(S(=O)(=O)N2CCc3ccccc32)c1 (centres undefined)
- IC50 [23]: 7.01 µM (active)
- AC50 (INS1): 3.56 µM (active)

SMILES: Oc1ccc(CCNC2CCN(Cc3ccccc3)CC2)cc1O
- IC50 [6]: 6.5 µM (active)

SMILES: CCOC(=O)c1cc2c(c(-c3cccc(C#CCN(C)C)c3)n1)[C@@H](CCO)N([S+]([O-])C(C)(C)C)C2 (some centres undefined)
- AC50 [24]: 16.2 µM (active)

SMILES: C[C@H](CO)N1C[C@H](C)[C@@H](CN(C)S(=O)(=O)c2ccc(Cl)cc2)OCCCC[C@H](C)Oc2ccc(NS(=O)(=O)c3ccc(F)cc3)cc2C1=O
- AC50 [25]: 29.1 µM (active)
- AC50 [26]: 36 µM (active)
- AC50 (Paired box protein Pax-8): 4.45 µM (active)

SMILES: COc1ccc(Cn2cc(CN3CCS(=O)(=O)N(Cc4ccc(-c5cccc(Cl)c5)cc4)C(C)C3=O)nn2)cc1 (centres undefined)
- IC50 [27]: > 69.5 µM (inactive)
- IC50 [28]: > 69.5 µM (inactive)

SMILES: CN1C(=O)c2cc(NC(=O)C3CC3)ccc2OC[C@@H]2O[C@H](CC(=O)NC3CCC3)CC[C@H]21
- AC50 [11]: 9.32 µM (active)

SMILES: CN(C)CC#Cc1cccc(-c2nc(C(=O)NCc3ccc(Oc4ccccc4)cc3)cc3c2[C@@H](CCO)N([S+]([O-])C(C)(C)C)C3)c1 (some centres undefined)
- AC50 [24]: 0.697 µM (active)

SMILES: CC(C)NC(=O)N1Cc2cc(C(=O)NCC(F)(F)F)nc(-c3cccc(-c4cc5ccccc5o4)c3)c2[C@H]1CCO
- AC50 [29]: 58.2 µM (active)
- AC50 [25]: 16.8 µM (active)
- AC50 [26]: 38.2 µM (active)
- AC50 (Paired box protein Pax-8): 7.2 µM (active)
- AC50 [30]: 5.15 µM (active)

From ChEMBL document CHEMBL1201862, “PubChem BioAssay data set” (2004)
